Measurements reported in patent US20170157212A1, “CDK MODULATORS AND METHODS FOR THE TREATMENT OF CANCER” (Salk Institute for Biological Studies, priority 2015, published 2017).

Legend:
[1] = target: T1, affinity-purified CDK12 kinase complex (Homo sapiens, UniProt Q9NYV4); test: In vitro kinase assay: CDK12 phosphorylation of RNAPII GST-CTD; format: biochemical; conditions: human GST-CTD (52 repeat), increasing levels of recombinant CRIF1, immunoblot, dose-dependent
T1 construct: made in house
Excerpt: (A) CRIF1 and CDK12 have opposite effects on global RNAPII CTD-Ser2P levels in vivo. U2OS cells were transfected with indicated siRNAs for 48 hr, and RNAPII phosphorylation was monitored by immunoblot using phospho-specific CTD (Ser2P and Ser5P) antibodies. (B) Knockdown of CRIF1 up-regulates CHK1 expression and induction of p53. […] (C) Analysis of steady-state mRNA levels by qRT-PCR in extracts from U2OS cells exposed to control (CTL) or CRIF1-specific siRNAs, as indicated. (D) Depletion of CRIF1 enhances 4E-BP1 phosphorylation at S65 and T70 in vivo, as assessed by immunoblot using phospho-specific antibodies. (E) CRIF1 inhibits RNAPII CTD-Ser2 phosphorylation by CDK12 complexes in vitro. The human GST-CTD (52 repeat) protein was incubated in vitro with the affinity-purified HA-CDK12 kinase complex in the absence or presence of increasing levels of purified recombinant CRIF1, and analyzed by immunoblot with the indicated antisera. […] Analysis of GST-CTD Ser2 phosphorylation was carried out as described in (E), using the affinity-purified FLAG-CDK9 kinase. (G) CRIF1 inhibits 4E-BP1 phosphorylation by CDK12 in vitro. […] was monitored by immunoblot in the absence or in the presence of different levels of affinity-purified recombinant CRIF1. […]

[2] = test system: CDK12; test: Co-immunoprecipitation of CRIF1 with CDK12; format: binding, human; conditions: native complexes
Excerpt: FIGS. 5A-5I. The Mitochondrial OX-PHOS Regulator, CRIF1, is a Novel Subunit of the Human CDK12 Kinase Complex. (A) Identification of CRIF1 as a near-stoichiometric subunit of the native CDK12 kinase complex. MudPIT analysis of CDK12 complexes from HEK293 cells that stably express HA-tagged full-length human CDK12. The HA-CDK12 complex was affinity-purified using anti-HA antibody and visualized by SDS-PAGE and silver-stain. (B) List of the identified proteins in the HA-CDK12 complex from (A). (C) Endogenous CRIF1 co-immunoprecipitates with native CDK12 in U2OS cell extracts. Shown is an immunoblot analysis of CRIF1, CCNK, and the chaperone proteins CDC37 and HSP90 in an anti-CDK12 immunoprecipitate. […] Native CRIF1 was immunoprecipitated from U2OS cells using an anti-CRIF1 antibody and analyzed by co-immunoprecipitation for association with various CDKs, as indicated. […] FLAG-CRIF1 proteins containing different C-terminal truncations were co-expressed with HA-CDK12 (aa 985-1490) and analyzed for binding by co-immunoprecipitation and immunoblot. […] Cell viability was analyzed after 72 hr. […] Expression of the mitochondrial MTCO-1 (COX1) protein was assessed using two different antisera. […] Each fraction (T; total, C:cytosolic, M:membrane/organelle, and N:nuclear) was analyzed by immunoblot using the indicated antibodies. […]
It was next evaluated how CRIF1 targets CDK12. […]

T1 sequence (Q9NYV4 whole entry): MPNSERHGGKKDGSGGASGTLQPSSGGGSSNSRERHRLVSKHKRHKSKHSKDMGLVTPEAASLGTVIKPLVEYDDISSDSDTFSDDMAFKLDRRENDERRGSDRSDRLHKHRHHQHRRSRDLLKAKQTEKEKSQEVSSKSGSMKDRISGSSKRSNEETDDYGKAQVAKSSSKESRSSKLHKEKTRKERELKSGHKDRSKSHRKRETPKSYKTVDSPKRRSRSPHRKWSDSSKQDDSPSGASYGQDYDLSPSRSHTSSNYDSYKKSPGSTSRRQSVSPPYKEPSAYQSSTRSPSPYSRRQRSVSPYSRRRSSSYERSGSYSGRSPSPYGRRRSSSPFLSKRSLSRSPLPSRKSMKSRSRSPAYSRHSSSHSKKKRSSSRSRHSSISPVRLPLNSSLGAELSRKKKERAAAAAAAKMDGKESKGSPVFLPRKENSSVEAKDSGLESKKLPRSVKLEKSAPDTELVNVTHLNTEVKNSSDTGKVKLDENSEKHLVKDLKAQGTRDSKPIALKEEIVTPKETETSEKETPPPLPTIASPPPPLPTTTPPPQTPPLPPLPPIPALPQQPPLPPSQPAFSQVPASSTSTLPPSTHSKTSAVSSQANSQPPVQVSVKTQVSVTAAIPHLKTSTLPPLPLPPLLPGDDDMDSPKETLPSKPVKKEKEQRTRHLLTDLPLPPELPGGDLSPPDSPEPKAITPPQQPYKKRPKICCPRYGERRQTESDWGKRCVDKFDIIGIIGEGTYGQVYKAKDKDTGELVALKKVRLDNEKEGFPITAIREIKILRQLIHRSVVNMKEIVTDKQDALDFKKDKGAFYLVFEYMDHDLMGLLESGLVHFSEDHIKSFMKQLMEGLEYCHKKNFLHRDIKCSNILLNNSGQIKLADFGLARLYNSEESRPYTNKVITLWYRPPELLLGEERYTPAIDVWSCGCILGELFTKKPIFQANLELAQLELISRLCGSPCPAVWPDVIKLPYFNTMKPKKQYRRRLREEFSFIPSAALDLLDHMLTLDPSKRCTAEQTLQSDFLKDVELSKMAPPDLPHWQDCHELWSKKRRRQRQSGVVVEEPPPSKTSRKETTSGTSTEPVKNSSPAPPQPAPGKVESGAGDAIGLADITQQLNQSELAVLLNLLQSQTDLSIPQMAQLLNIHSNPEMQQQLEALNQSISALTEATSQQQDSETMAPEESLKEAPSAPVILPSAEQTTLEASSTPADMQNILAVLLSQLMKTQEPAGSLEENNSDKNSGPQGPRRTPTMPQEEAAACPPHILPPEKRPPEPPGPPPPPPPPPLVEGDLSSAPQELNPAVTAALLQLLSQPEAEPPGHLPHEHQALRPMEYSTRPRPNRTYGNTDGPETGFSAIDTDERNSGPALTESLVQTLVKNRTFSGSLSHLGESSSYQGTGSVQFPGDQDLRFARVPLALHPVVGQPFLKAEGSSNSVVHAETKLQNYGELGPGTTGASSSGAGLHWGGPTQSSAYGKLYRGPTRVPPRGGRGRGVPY
T1 sequence (O75909 whole entry partner): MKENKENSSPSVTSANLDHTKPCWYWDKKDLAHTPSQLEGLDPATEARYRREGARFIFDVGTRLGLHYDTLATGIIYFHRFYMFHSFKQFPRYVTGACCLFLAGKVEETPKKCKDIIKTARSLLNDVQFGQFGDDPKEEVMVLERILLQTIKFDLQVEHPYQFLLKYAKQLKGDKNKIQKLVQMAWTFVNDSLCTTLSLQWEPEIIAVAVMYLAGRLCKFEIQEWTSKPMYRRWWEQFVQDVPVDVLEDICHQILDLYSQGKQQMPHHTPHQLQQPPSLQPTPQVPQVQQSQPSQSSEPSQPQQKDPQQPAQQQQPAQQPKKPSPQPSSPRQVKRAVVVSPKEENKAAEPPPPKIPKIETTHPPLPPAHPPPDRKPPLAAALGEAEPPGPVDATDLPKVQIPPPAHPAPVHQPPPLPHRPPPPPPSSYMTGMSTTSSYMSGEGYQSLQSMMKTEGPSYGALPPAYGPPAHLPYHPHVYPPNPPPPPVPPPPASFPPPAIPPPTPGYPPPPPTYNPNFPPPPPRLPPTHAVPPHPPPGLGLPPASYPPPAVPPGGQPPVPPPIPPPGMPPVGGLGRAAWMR
Chain of CDK12 (Q9NYV4 whole entry): as the sequence (Q9NYV4 whole entry) above
Chain of CDK12 (O75909 whole entry partner): as the sequence (O75909 whole entry partner) above

CDK12-mediated phosphorylation of the human GST-CTD substrate (RNAPII CTD-Ser2) [1]: inhibits | CDK12-mediated phosphorylation of the human GST-CTD substrate (RNAPII CTD-Ser2) ([1]; listed as recombinant CRIF1): potently inhibited
Substance: Growth Arrest and DNA Damage-Inducible Proteins-Interacting Protein 1 [CRIF1]
presence of CRIF1 in CDK12 complexes [2]: present
